{"source": "paper PMC3341351", "about": "“Down-Regulation of GABAA Receptor via Promiscuity with the Vasoactive Peptide Urotensin II Receptor. Potential Involvement in Astrocyte Plasticity” (PLoS ONE, 2012)", "key": {"[1]": {"system": "GABAAR in cerebellar astrocytes (UT co-expressed)", "assay": "Whole-cell patch-clamp of isoguvacine (Iso)-evoked depolarization/chloride current in cerebellar astrocytes co-cultured with granule neurons", "format": "cell-based, rat", "details": "Iso 10^−4 M; n = 78", "method": "(§1) Primary Cell Culture of astrocytes and astrocyte-neurone co-culture\n(§2) Primary cultures of astrocytes were prepared as previously described. Briefly, cerebellum from 7-day-old (P7) Wistar rats were collected in DMEM/Ham-F12 (2∶1, v/v) culture medium supplemented with 2 mM glutamine, 1% insulin, 5 mM HEPES, 0.4% D(+)-glucose and 1% of the antibiotic-antimycotic solution. The tissues were disaggregated mechanically with a syringue equipped with a 1-mm gauge needle, and filtered through a 100-µm pore size mesh filter (Falcon, Becton Dickinson, Grenoble, France). Dissociated cells were resuspended in culture medium supplemented with 10% heat-inactivated FBS and seeded in 150-cm^2 culture flasks (Falcon) at a density of 20×10^6 cells/flask. Cells were incubated at 37°C in a humidified atmosphere (5% CO2) and the medium was changed twice a week. When cultures were confluent, the flasks were gently shaken on an orbital shaker at […] for 2 h. Dislodged cells were discarded and a second step of purification was performed at […] for 14–16 h. Remaining adhesive cells were collected by trypsination, centrifuged (800 g, 10 min) and plated in 150-cm^2 flasks. Suspended astrocytes were harvested and seeded in 24-well poly-L-lysine-coated plates. The purity of the cultures was previously assessed by counting the percentage of astrocytes immunostained with GFAP antibodies. The enriched cultures contained >99% astrocytes.\n(§3) For astrocyte-neuron co-culture, granule cell cultures were prepared from cerebella of P7 Wistar rats as described previously. Isolated cells were plated on 14-mm culture dishes coated with poly-L-lysine (5 mM) at a density of 1.5×10^6 cells/dish and incubated at 37°C in a humidified atmosphere (5% CO2) for 1 to 10 days before use. Culture medium consisted of DMEM/Ham's F12 (75%/25%) supplemented with 10% FBS, 2 mM glutamine, 5 µg/ml insulin, 25 mM KCl and 1% of antibiotic-antimycotic solution. Co-cultures are obtained by seeding granule cells (1.5×10^6 cells/ml) on cerebellar astrocytes plated in 24-well plates after 12 hours. Co-cultures are maintained in the specific medium for neuron and incubated at 37°C in an humidified atmosphere (5% CO2) for several days.\n(§4) The conventional whole-cell configuration of the patch-clamp technique was used to study the GABA-gated currents in astrocytes and granule neurons, UT stably transfected CHO, CHO-UT, and CHO transiently transfected with diverse variants of UT and GABAAR subunits. After 24-h transfection, cell culture coverslips were placed in a small chamber (1.5 ml) on a stage of a right microscope DMLFSA (Leica, Heidelberg, Germany) and superfused continuously with the following bath solution containing (in mM): NaCl, 150; KCl, 2.5; HEPES, 5; CaCl2, 2; MgCl2, 1; glucose, 10 (pH 7.4 adjusted with NaOH). The patch pipettes were fabricated from 1.5 mm (outer diameter) soft glass tubes on a two-step vertical pipette puller (List-Medical, L/M-3P-A, Darmstadt, Germany). […] ATP and GTP were added to the internal solution used to fill electrode just before recording. All recordings were obtained at RT with cells voltage-clamped at −70 mV. The GABAA receptor agonist isoguvacine was prepared in the extracellular solution and was applied to cells by pneumatic pressure ejection. To prevent desenzitization, isoguvacine was more often ejected during 5 s at 2-min intervals. ATP, GTP, or guanosine 5′-O-(2-thiodiphosphate) (GDPβS) were administered through the patch pipette solution. We investigated the effect of competitive inhibition of GDP-GTP exchange by including GDPβS in the pipette solution (in addition to the normal amount of GTP). For GDPβS and the KIC, immediately following patch rupture, GABA current recordings were performed and the experiment was commenced after an equilibration period of 15 min. […]"}, "[2]": {"system": "β3 GABAAR subunit in human U87 glioma", "assay": "Cell surface ELISA of β3 GABAAR subunit in U87 glioma", "format": "cell-based", "details": "hUII 10^−8 M, 30 min, 37°C, at least 3 independent experiments in triplicates", "method": "The human cell line from glioblastoma U87 was obtained from the American Type Culture Collection (LGC Standards, Molsheim, France). U87 cells were maintained in DMEM containing 10% FBS and 1% sodium pyruvate. NHA-Astrocytes (Lonza, Walkersville, MD, USA) were cultivated in DMEM culture medium supplemented with 2 mM glutamine, 5 mM HEPES, 1% non essential amino acids, 1% sodium pyruvate, B27, 25 ng/ml EGF, 1% of the antibiotic-antimycotic solution and 10% FBS. All cells were incubated at 37°C in a humidified atmosphere containing 5% CO2. Culture media were replaced every three days.\nCells were plated at 50 000 cells/well in 96-well plates coated with 0.1 mg/ml poly-L-ornithine (Sigma-Aldrich). […] Cells were fixed with 4% PFA in PBS for 5 min at RT, washed in PBS, and then permeabilized in 0.05% triton X100 (only for permeabilized cells) and non specific binding were blocked with PBS containing 1% FBS for 30 min at RT. […] The cells were washed four times with PBS, a colorimetric alkaline phosphatase substrate was added (SuperSignal ELISA, Thermo scientific, Fisher) and the resulting color reaction was measured using a Viktor multilabel plate reader (PerkinElmer, Courtaboeuf, France). Background absorbance from samples transfected with non-tagged receptors or from cells without first antibodies were systematically measured. […]"}, "[3]": {"target": "T1, GABAAR in cerebellar astrocytes (UT co-expressed) (Rattus norvegicus, UniProt P49684)", "T1 construct": "Astrocytes, recognized by strong GFAP staining show UT immunoreactivity; endogenous in cells; host or cells: primary rat (P7 Wistar) cerebellar astrocytes co-cultured with cerebellar granule neurons", "T1 sequence (P49684 1-386)": "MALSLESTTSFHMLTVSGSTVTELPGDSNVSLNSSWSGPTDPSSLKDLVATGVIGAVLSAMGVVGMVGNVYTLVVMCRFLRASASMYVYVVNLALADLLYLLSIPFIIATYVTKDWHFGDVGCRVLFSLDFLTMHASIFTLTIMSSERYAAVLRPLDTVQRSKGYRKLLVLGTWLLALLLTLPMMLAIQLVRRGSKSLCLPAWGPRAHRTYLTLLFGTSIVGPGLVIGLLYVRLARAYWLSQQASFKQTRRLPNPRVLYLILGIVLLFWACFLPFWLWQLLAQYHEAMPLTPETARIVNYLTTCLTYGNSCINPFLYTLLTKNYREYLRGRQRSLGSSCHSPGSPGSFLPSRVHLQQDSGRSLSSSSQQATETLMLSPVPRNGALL", "assay": "Whole-cell patch-clamp of isoguvacine (Iso)-evoked depolarization/chloride current in cerebellar astrocytes co-cultured with granule neurons", "format": "cell-based", "method": "as §1, §2, §3, §4"}}}
{"molecule": "O=C(O)C1=CCNCC1", "note": "[Iso, isoguvacine]", "values": [{"measurement": "Cells responding to isoguvacine, astrocytes cultured with granule neurons", "setting": "[1]", "result": 48, "unit": "%"}]}
{"molecule": "ETPDCFWKYCV (disulfide) [hUII, human urotensin II, synthesized by solid phase methodology]", "values": [{"measurement": "β3-associated GABAAR subunit internalization, without UT319–389", "setting": "[2]", "result": 20, "unit": "%"}]}
{"molecule": "UII: Urotensin II, species not stated at that place (rUII in astrocytes, hUII in CHO and human cells)", "values": [{"measurement": "Direct current activated", "setting": "[3]; UII 10^−8 M, in some cells", "result": "activated a small inward current"}, {"measurement": "Recovery of the GABAAR current inhibition during washout", "setting": "[3]; astrocytes", "result": "hardly recovered during washout"}]}
